One may read the logD as lipophilicity at a set pH, counting ionised and neutral species. By Papp A→B is commonly meant the apparent permeability from the apical to the basolateral side of a cell layer. Broadly, the bioavailability is the share of a dose that reaches the circulation, judged against a reference dose that is usually intravenous. Higher therefore signals good availability.

Here are results for 23 compounds from ChEMBL document CHEMBL4266018, “Discovery and Characterization of AZD6738, a Potent Inhibitor of Ataxia Telangiectasia Mutated and Rad3 Related (ATR) Kinase with Application as an Anticancer Agent” (J Med Chem, 2018).

Data set [1] is described as follows: Plasma concentration in Swiss nu/nu mouse xenografted with human LoVo cells at 25 mg/kg, po bid after 8 hrs. The format is ADME, organism-based. In general terms: In xenograft studies the graft and the host belong to different species.
A short description of data set [2]: physchem. Particulars: octanol/phosphate buffer, pH 7.4.
A short description of data set [3]: Apparent permeability across apical to basolateral side in human Caco2 cells at 10 uM at pH 7.4. It counts as ADME, cell-based. The note with it: Caco-2, pH 7.4.
Data set [4] has as its system Rattus norvegicus. Nature of the data set: Dose normalized AUC in Han-Wistar rat at 4 umol/kg, po. The format is ADME, organism-based. The note with it: in vivo.
Data set [5] can be described thus: Plasma concentration in Swiss nu/nu mouse xenografted with human LoVo cells at 50 mg/kg, po qd after 8 hrs. It counts as ADME, organism-based.
Data set [6] is described as follows: in vitro. Particulars: human, hepatocytes.
Data set [7] in a line: in vitro. The note with it: rat, hepatocytes.
The subject of data set [8] is Rattus norvegicus. Nature of the data set: Dose normalized AUC in Han-Wistar rat at 10 umol/kg, po. The format is ADME, organism-based. The note with it: in vivo.
Data set [9] in a line: Plasma concentration in Swiss nu/nu mouse xenografted with human LoVo cells at 25 mg/kg, po qd after 8 hrs. The format is ADME, organism-based.
Data set [10] is described as follows: Apparent permeability across apical to basolateral side in human Caco2 cells at 10 uM at pH 6.5. It counts as ADME, cell-based. The note with it: Caco-2, pH 6.5.
Data set [11] can be described thus: Plasma concentration in Swiss nu/nu mouse xenografted with human LoVo cells at 12.5 mg/kg, po bid after 8 hrs. It counts as ADME, organism-based.
Data set [12] in a line: Plasma concentration in Swiss nu/nu mouse xenografted with human LoVo cells at 75 mg/kg, po qd after 8 hrs. It counts as ADME, organism-based.
Data set [13] in a line: Intrinsic clearance in human hepatocytes assessed as per million cells at 1 uM. The format is ADME, cell-based, Hepatocyte. Particulars: read-out: CLH.
For data set [14], the system named is Canis familiaris. The experiment in a line: Clearance in Beagle dog at 10.5 umol/kg, iv or […], po relative to liver blood flow. It counts as ADME, organism-based, Canis lupus familiaris. Particulars: in vivo.
Data set [15] is described as follows: Volume of distribution at steady state in Han Wistar rat at 8.55 umol/kg, iv or 20.3 umol/kg, po. The note with it: in vivo, read-out: Vdss. The format is ADME, organism-based.
Data set [16] in a line: Elimination half life in human. The note with it: in vivo, read-out: beta t1/2 (converted). It counts as ADME, organism-based.
Data set [17] can be described thus: Oral bioavailability in Han Wistar rat at 20.3 umol/kg. It counts as ADME, organism-based. Particulars: in vivo.
Data set [18] concerns Rattus norvegicus. The experiment in a line: Clearance in Han Wistar rat at 8.55 umol/kg, iv or 20.3 umol/kg, po relative to liver blood flow. The format is ADME, organism-based. Particulars: in vivo.
Data set [19] in a line: Oral bioavailability in Beagle dog at […]. It counts as ADME, organism-based, Canis lupus familiaris. The note with it: in vivo.
Data set [20] in a line: Volume of distribution at steady state in Beagle dog at 10.5 umol/kg, iv or […], po. The format is ADME, organism-based, Canis lupus familiaris. Particulars: in vivo, read-out: Vdss.

The structures appear in SMILES notation.

Turning to `C[C@@H]1COCCN1c1cc(C2(S(C)(=O)=O)CC2)nc(-c2cccc3[nH]ccc23)n1`, the results for the concentration at 8 h in data set [1] and in [5] were 1800 nM and 3500 nM, respectively. Besides, the logD at 3 h, 10 µM in [2] was found to be 2.5. Besides, the apparent permeability from apical to basolateral (Papp A→B) at 10 µM in [3] turned out to be 37 ×10⁻⁶ cm/s. Besides, in data set [4], the AUC/dose came out at 1 µM·h.

Consider `CS(=O)(=O)C1(c2cc(N3CCOCC3)nc(-c3cccc4[nH]ccc34)n2)CC1`, for which the logD at 3 h, 10 µM in data set [2] stood at 2.3.

On to `CS(=O)(=O)C1(c2cc(N3CCOCC3)nc(-c3cccc4[nH]cnc34)n2)CC1`, for which, in data set [2], the logD at 3 h, 10 µM was 2.2.

Compound `CNC(=O)c1cc(-c2nc(N3CCOCC3)cc(C3(S(C)(=O)=O)CC3)n2)c2cc[nH]c2c1` came in with a pH-dependent lipophilicity (logD) at 3 h, 10 µM in [2] of 1.6.

`C[C@@H]1COCCN1c1cc(C2([S@@](C)(=N)=O)CC2)nc(-c2ccnc3[nH]ccc23)n1` yielded a logD at 3 h, 10 µM in data set [2] of 1.8.

Take `CNc1nc2ccccc2n1-c1nc(N2CCOC[C@H]2C)cc(C2([S@](C)(=N)=O)CC2)n1`: in [2], the logD at 3 h, 10 µM came to 2.1. In addition, the Papp A→B at 10 µM in data set [3] was 8 ×10⁻⁶ cm/s. Further, the hepatocyte CLint at 1 µM in data set [6] is less than 3 µL/min/1e6 cells; in data set [7] it was 11 µL/min/1e6 cells. The same compound came in with a concentration at 8 h in [5] of 940 nM. Moreover, the AUC/dose in data set [8] is 0.35 µM·h.

In turn, `C[C@@H]1COCCN1c1cc(C2(S(C)(=N)=O)CC2)nc(-c2cncc3[nH]ccc23)n1` (some centres undefined) showed a logD at 3 h, 10 µM in [2] of 1.4.

In [2], `CC(=O)Nc1nc2ccccc2n1-c1nc(N2CCOC[C@H]2C)cc(C2(S(C)(=O)=O)CC2)n1` displayed a logD at 3 h, 10 µM of 1.8.

As to `CS(=O)(=O)C1(c2cc(N3CCOCC3)nc(-c3cncc4[nH]ccc34)n2)CC1`, in data set [2], the log distribution coefficient (logD) at 3 h, 10 µM stood at 1.8.

In data set [2], `CS(=O)(=O)C1(c2cc(N3CCOCC3)nc(-c3ccnc4[nH]ccc34)n2)CC1` had a pH-dependent lipophilicity (logD) at 3 h, 10 µM of 2.2.

`C[C@@H]1COCCN1c1cc(C2(S(C)(=O)=O)CC2)nc(-c2cncc3[nH]ccc23)n1`: the logD at 3 h, 10 µM in data set [2] worked out at 2.1. For the same compound, the figures for the concentration at 8 h in data set [9] and in data set [11] were 780 nM and 220 nM, respectively. In addition, the hepatocyte CLint at 1 µM is less than 3 µL/min/1e6 cells in [6] and 10 µL/min/1e6 cells in data set [7]. Moreover, in data set [4], the AUC/dose amounted to 0.08 µM·h. Moreover, in data set [10], the Papp A→B at 10 µM was 8 ×10⁻⁶ cm/s.

Consider `CNc1nc2ccccc2n1-c1nc(N2CCOC[C@H]2C)cc(C2([S@@](C)(=N)=O)CC2)n1`, for which the logD at 3 h, 10 µM in [2] is 2.1.

Take `C[C@@H]1COCCN1c1cc(C2([S@+](C)[O-])CC2)nc(-c2ccnc3[nH]ccc23)n1`: in data set [2], the log distribution coefficient (logD) at 3 h, 10 µM came to 2.5.

Compound `CS(=O)(=O)C1(c2cc(N3CC4CCC(C3)O4)nc(-c3cncc4[nH]ccc34)n2)CC1` had a logD at 3 h, 10 µM in data set [2] of 2.2.

`C[C@@H]1COCCN1c1cc(C2(S(C)(=O)=O)CC2)nc(-c2ccnc3[nH]ccc23)n1`: in data set [2], the logD at 3 h, 10 µM was 2.6.

For the compound `CS(=O)(=O)C1(c2cc(C3=CCOCC3)nc(-c3cccc4[nH]ccc34)n2)CC1`, the log distribution coefficient (logD) at 3 h, 10 µM in [2] was 2.9.

Turning to `C[C@@H]1COCCN1c1cc(C2(S(C)(=O)=O)CC2)nc(-n2c(N)nc3ccccc32)n1`, the logD at 3 h, 10 µM in [2] is 2.5.

Turning to `C[C@H]1COCCN1c1cc(C2(S(C)(=O)=O)CC2)nc(-c2cncc3[nH]ccc23)n1`, in [2], the logD at 3 h, 10 µM came to 2.2.

The compound `CNc1nc2ccccc2n1-c1nc(N2CCOC[C@H]2C)cc(C2(S(C)(=O)=O)CC2)n1` had a concentration at 8 h in [1] of 8300 nM. Further, the log distribution coefficient (logD) at 3 h, 10 µM in data set [2] came to 2.8. The Papp A→B at 10 µM in [3] was found to be 53 ×10⁻⁶ cm/s. Besides, the values for the hepatocyte CLint at 1 µM in data set [6] and in data set [7] were less than 3 µL/min/1e6 cells and 25 µL/min/1e6 cells, respectively. In data set [8], the AUC/dose came out at 0.4 µM·h.

Turning to `CS(=O)(=O)C1(c2cc(N3CCOCC3)nc(-n3c(N)nc4ccccc43)n2)CC1`, in data set [2], the logD at 3 h, 10 µM was 2.2.

`CS(=O)(=O)C1(c2cc(N3C4CCC3COC4)nc(-c3cncc4[nH]ccc34)n2)CC1`: the logD at 3 h, 10 µM in [2] worked out at 2.1.

The compound `C[C@@H]1COCCN1c1cc(C2([S@@+](C)[O-])CC2)nc(-c2ccnc3[nH]ccc23)n1` returned a logD at 3 h, 10 µM in data set [2] of 2.5.

On to `C[C@@H]1COCCN1c1cc(C2([S@](C)(=N)=O)CC2)nc(-c2cc[nH]c3nccc2-3)n1` [CERALASERTIB], for which the concentration at 8 h in [12] worked out at 2600 nM; in data set [1], 740 nM; in data set [5], 2200 nM. Moreover, the pH-dependent lipophilicity (logD) at 3 h, 10 µM in data set [2] was determined as 1.9. Besides, the figures for the Papp A→B at 10 µM in data set [3] and in data set [10] were 12 ×10⁻⁶ cm/s and 6.8 ×10⁻⁶ cm/s, respectively. The hepatocyte CLint at 1 µM is less than 3 µL/min/1e6 cells in [6], less than 3.5 µL/min/1e6 cells in [7] and 2 µL/min/1e6 cells in data set [13]. Besides, the CL in [14] is listed as 10%; in [18], 22%. Moreover, the Vd stood at 3.1 L/kg in data set [15] and 1 L/kg in data set [20]. In data set [8], this compound gave an AUC/dose of 0.8 µM·h. The half-life in data set [16] is 11 h. The bioavailability in data set [17] was 67%; in data set [19], 100%.
